Source: patent US20200399392A1, “INHIBITORS OF PLA2-G1B COFACTORS FOR TREATING CANCER” (priority 2018, published 2020)

Assays:
gC1qR = target: T1, gC1qR (Homo sapiens, UniProt Q07021); assay: gC1qR-peptides binding assay (ELISA on microplates); settings: peptide coated, His-tag-gC1qR 0 to 3 μg/well, FIG. 12
T1 sequence (Q07021 74-282): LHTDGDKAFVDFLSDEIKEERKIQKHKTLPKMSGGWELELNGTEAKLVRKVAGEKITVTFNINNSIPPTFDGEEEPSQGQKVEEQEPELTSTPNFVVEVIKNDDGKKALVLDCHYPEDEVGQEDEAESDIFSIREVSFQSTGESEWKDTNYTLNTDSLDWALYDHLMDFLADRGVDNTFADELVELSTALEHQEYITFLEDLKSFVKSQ
Method: The unbound protein was removed; the wells washed 2× with TBST (20 mM Tris-HCl pH 7.5, 150 mM NaCl, and 0.05% Tween-20) and the unreacted sites blocked by incubation (30 min, room temp) with 300 μl of 3% BSA in TBST. After washing (2× with TBST), the microtiter plate bound peptides was incubated (2 h, room temp.) with different amount of His-tag-gC1qR ranging from 0 to 3 μg/well in triplicate. After washing (5 times with TBST), 100 μl of anti-His tag-HRP antibody (1:1000; 71840-3, Merck) in 3% BSA in TBST was added per well and incubated for 2 h at room temperature. Microplates wells were then washed (5 times with TBST) and 100 μl of TMB ELISA substrate standard solution (UP664781, Interchim) was added per well. Reaction was stopped with 100 μl per well of a H2SO4 solution at 0.16M and OD at 450 nm was measured on a microplate reader (Tecan Infinite M1000 Pro).
A scrambled peptide or a control peptide were used as control.

PLA2-GIB = PLA2-GIB enzymatic assay on [3H] arachidonic acid labelled Jurkat E6.1 T cells; format: cell-based, human
Method: Jurkat E6.1 T cells (ECACC 88042803) or gC1qR KO Jurkat E6.1 T cells were incubated for 17 h at 5×10^5 cells/ml with 1 μCi/ml of arachidonic acid [5,6,8,9,11,14,15-^3H(N)] (Perkin Elmer, NET298Z250UC) in RPMI 1640 medium (Lonza) supplemented with 10% FBS, 50 mM HEPES pH 7.4, glutamine, penicillin, streptomycin and fungizone at 2 ml/well in 6-well plates at 37° C. in a 5% CO2 humidified atmosphere. Cells were washed twice with RPMI with 10% FBS by centrifugation at 300×g for 10 minutes at room temperature and then frozen in 90% FBS 10% DMSO at 10^7 cells/ml/vial at −80° C. Percent of [3H] arachidonic acid in CD4 T cells is the (1 minus ratio of [3H] arachidonic acid in the supernatant of CD4 T cells without cells (cpm/ml) on total [3H] arachidonic acid in supernatant and cells (cpm/ml).
To test PLA2-GIB activity on [3H] arachidonic acid labelled Jurkat E6.1 T lymphocytes, cells were unfrozen in 10% FBS RPMI preheated at 37° C. by centrifugation at 300×g for 10 minutes at room temperature, washed twice in 2.5% FBS RPMI, and equilibrated at 5×10^4 or 10^5 Jurkat E6.1 T cells/400 μl/well in 24-well polystyrene plates for 1 h30 at 37° C. in a 5% CO2 humidified atmosphere. Then HCV core solution or vehicle dilution in 2.5% FBS RPMI at 5.95 μM was mixed with an equal volume of a PLA2GIB solution at 630 nM or 2 μM 2.5% FBS RPMI and 100 μl were added per well at the same time for 2 h. For peptide treatments, cells were pretreated for 2 h, 4 h or 21 h, as indicated on figures, with 50 μl per well of peptide solutions at 110 μM or 55 μM in 2.5% FBS RPMI. Then 50 μl per well of PLA2-GIB at 630 nM or 2 μM 2.5% FBS RPMI or medium alone were added for 2 h. Cells and supernatant were collected in eppendorf tubes and centrifuged at 580×g for 10 minutes at room temperature. The [3H] arachidonic acid released in cell supernatant was quantified in 300 μl with 16 ml of Ultima gold (Perkin Elmer, 6013329) in low diffusion vials (Perkin Elmer, 6000477) on a counter (tri-Carb 2800 TR liquid scintillation analyzer, Perkin Elmer).

pSTAT5 NT in CD4 T cells = assay: PLA2-GIB bioassay on CD4 T cells: pSTAT5 nuclear translocation in response to IL-7, confocal microscopy; format: cell-based, human
Excerpt: Purification of Human CD4 T-lymphocytes—Venous blood was obtained from healthy volunteers through the EFS (Etablissement Français du Sang, Centre Necker-Cabanel, Paris). CD4 T-cells were purified from whole blood using RosetteSep Human CD4+ T cell Enrichment Cocktail (Stem Cell, 15062). This cocktail contains mouse and rat monoclonal antibodies purified from mouse ascites fluid or hybridoma culture supernatant, by affinity chromatography using protein A or Protein G sepharose. These antibodies are bound in bispecific tetrameric antibody complexes which are directed against cell surface antigens on human hematopoietic cells (CD8, CD16, CD19, CD36, CD56 CD66b, TCRγ/δ) and glycophorin A on red blood cells. The rosetteSep antibody cocktail crosslinks unwanted cells in human whole blood to multiple red blood cells, forming immunorosettes. This increases the density of unwanted cells, such that they pellet along with the free red blood cells when centrifuged over a buoyant density medium such as lymphocytes separation medium (Eurobio, CMSMSL01-01).
Whole blood was incubated with RosetteSep Human CD4+ T cell Enrichment Cocktail at 50 μl/ml for 20 minutes at room temperature under gentle shaking (100 rpm), diluted with an equal volume of PBS+2% foetal bovine serum (FBS) and mixed gently. The diluted samples were centrifuged 20 minutes at 1200×g on top of lymphocytes separation medium. The enriched cells were then collected from the density medium at plasma interface and washed twice with PBS+2% FBS. Cells were subsequently resuspended in RPMI 1640 medium (Lonza) supplemented with 5% FBS, 50 mM HEPES pH 7.4, glutamine, penicillin, streptomycin and fungizone (complete medium), counted with a Moxi Z mini automated cell counter (ORFLO, MXZ000). Cells suspension was adjusted at 7×10^6 cells/ml and equilibrated at least 2 h at 37° C. in a 5% CO2 humidified atmosphere.
The enriched CD4-T cell population was controlled by flow cytometry on a cytoflex (Beckman coulter). The quiescence of recovered CD4 T-cells was controlled by the low level of IL-2Rα (CD25).

Substance: NH2-PWNASWSNKSLDDIW—COOH (H-PWNASWSNKSLDDIW-OH) [PEP3]
- binding to gC1qR (gC1qR): binds
- PLA2-GIB activity vs scrambled PEP3 (PLA2-GIB; Jurkat E6.1 WT cells, pretreatment 21 h, FIG. 13): increased significantly
- PLA2-GIB activity on the membrane of Jurkat E6.1 T cells vs scrambled PEP3 (PLA2-GIB; pretreatment 4 h or more with peptide 11 μM, 200 nM PLA2-GIB, FIG. 11): significantly increased
- inhibition of pSTAT5 NT (pSTAT5 NT in CD4 T cells; 0.025 μg/ml of PEP3 with 5 nM of PLA2-GIB, FIG. 5B): 18%
- inhibition of pSTAT5 NT (pSTAT5 NT in CD4 T cells; 0.5 μg/ml of PEP3 alone, n=3 donors, FIG. 5C): 5%
- effect on pSTAT5 NT (pSTAT5 NT in CD4 T cells; peptide alone, without PLA2-GIB, FIG. 5B): no effect
